From patent US10322995B2, “Substituted cyano cycloalkyl penta-2,4-dienes, cyano cycloalkyl pent-2-en-4-ynes, cyano heterocyclyl penta-2,4-dienes and cyano heterocyclyl pent-2-en-4-ynes as active substances against abiotic plant stress” (BAYER CROPSCIENCE AKTIENGESELLSCHAFT, priority 2014, dated 2019)

Key:
Parameters in all cases: key: 0: no positive effect; 10: slight positive effect; 20: clear positive effect; 30: strong positive effect
[1] = tested on: Triticum aestivum (TRZAS); assay: In vivo analyses Part B: drought stress, appearance vs stressed control plants in categories (TRZAS); conditions: spray application 250 g/ha, category vs stressed control plants, 2-3 pots
Protocol: Seeds of monocotyledonous and dicotyledonous crop plants were sown in sandy loam in plastic pots, covered with soil or sand and cultivated in a greenhouse under good growth conditions. The test plants were treated at the early leaf stage (BBCH10-BBCH13). To assure uniform water supply before commencement of stress, the potted plants were supplied with water by dam irrigation prior to substance application. The inventive compounds, formulated in the form of wettable powders (WP), were sprayed onto the green parts of the plants as an aqueous suspension at an equivalent water application rate of 600 I/ha with addition of 0.2% wetting agent (e.g. agrotin). Substance application was followed immediately by stress treatment of the plants. Drought stress was induced by gradual drying out under the following conditions: “Day”: 14 hours with illumination at 26-30° C. “Night”: 10 hours without illumination at 18-20° C. The duration of the respective stress phases was guided mainly by the condition of the stressed control plants. It was ended (by re-irrigating and transfer to a greenhouse with good growth conditions) as soon as irreversible damage was observed on the stressed control plants. The end of the stress phase was followed by an about 4-7-day recovery phase, during which the plants were once again kept under good growth conditions in a greenhouse. The duration of the recovery phase was guided mainly by when the trial plants had attained a state which enabled visual scoring of potential effects, and was therefore variable. Once this juncture had been reached, the appearance of the plants treated with test substances was recorded in comparison to the stressed control plants by the following categories: [table] In order to rule out any influence on the effects observed by any fungicidal or insecticidal action of the test compounds, it was additionally ensured that the tests proceeded without fungal infection or insect infestation. For each substance and dosage, 2-3 pots were treated and evaluated. TRZAS=Triticum aestivum

Brassica napus (BRSNS) = assay: In vivo analyses Part B: drought stress, appearance vs stressed control plants in categories (BRSNS); conditions: spray application 250 g/ha, category vs stressed control plants, 2-3 pots
Protocol: Seeds of monocotyledonous and dicotyledonous crop plants were sown in sandy loam in plastic pots, covered with soil or sand and cultivated in a greenhouse under good growth conditions. The test plants were treated at the early leaf stage (BBCH10-BBCH13). To assure uniform water supply before commencement of stress, the potted plants were supplied with water by dam irrigation prior to substance application. The inventive compounds, formulated in the form of wettable powders (WP), were sprayed onto the green parts of the plants as an aqueous suspension at an equivalent water application rate of 600 I/ha with addition of 0.2% wetting agent (e.g. agrotin). Substance application was followed immediately by stress treatment of the plants. Drought stress was induced by gradual drying out under the following conditions: “Day”: 14 hours with illumination at 26-30° C. “Night”: 10 hours without illumination at 18-20° C. The duration of the respective stress phases was guided mainly by the condition of the stressed control plants. It was ended (by re-irrigating and transfer to a greenhouse with good growth conditions) as soon as irreversible damage was observed on the stressed control plants. The end of the stress phase was followed by an about 4-7-day recovery phase, during which the plants were once again kept under good growth conditions in a greenhouse. The duration of the recovery phase was guided mainly by when the trial plants had attained a state which enabled visual scoring of potential effects, and was therefore variable. Once this juncture had been reached, the appearance of the plants treated with test substances was recorded in comparison to the stressed control plants by the following categories: [table] In order to rule out any influence on the effects observed by any fungicidal or insecticidal action of the test compounds, it was additionally ensured that the tests proceeded without fungal infection or insect infestation. For each substance and dosage, 2-3 pots were treated and evaluated. BRSNS=Brassica napus

Zea mays (ZEAMX) = assay: In vivo analyses Part B: drought stress, appearance vs stressed control plants in categories (ZEAMX); conditions: spray application 25 g/ha, category vs stressed control plants, 2-3 pots
Protocol: Seeds of monocotyledonous and dicotyledonous crop plants were sown in sandy loam in plastic pots, covered with soil or sand and cultivated in a greenhouse under good growth conditions. The test plants were treated at the early leaf stage (BBCH10-BBCH13). To assure uniform water supply before commencement of stress, the potted plants were supplied with water by dam irrigation prior to substance application. The inventive compounds, formulated in the form of wettable powders (WP), were sprayed onto the green parts of the plants as an aqueous suspension at an equivalent water application rate of 600 I/ha with addition of 0.2% wetting agent (e.g. agrotin). Substance application was followed immediately by stress treatment of the plants. Drought stress was induced by gradual drying out under the following conditions: “Day”: 14 hours with illumination at 26-30° C. “Night”: 10 hours without illumination at 18-20° C. The duration of the respective stress phases was guided mainly by the condition of the stressed control plants. It was ended (by re-irrigating and transfer to a greenhouse with good growth conditions) as soon as irreversible damage was observed on the stressed control plants. The end of the stress phase was followed by an about 4-7-day recovery phase, during which the plants were once again kept under good growth conditions in a greenhouse. The duration of the recovery phase was guided mainly by when the trial plants had attained a state which enabled visual scoring of potential effects, and was therefore variable. Once this juncture had been reached, the appearance of the plants treated with test substances was recorded in comparison to the stressed control plants by the following categories: [table] In order to rule out any influence on the effects observed by any fungicidal or insecticidal action of the test compounds, it was additionally ensured that the tests proceeded without fungal infection or insect infestation. For each substance and dosage, 2-3 pots were treated and evaluated. ZEAMX=Zea mays

SMILES | Effect (TRZAS) [1] | Effect (BRSNS) (Brassica napus (BRSNS)) | Effect (ZEAMX) (Zea mays (ZEAMX))
COC(=O)/C=C(/C)C#CC(O)(C(C)C)C1(C#N)CC1 (stereo not shown) [I.1-135] | 30 | 30 | 
CCCOC(=O)/C=C(\C#CC(O)(C(C)C)C1(C#N)CC1)CC (stereo not shown) [I.1-605] | 20 | 20 | 
CC/C(C#CC(O)(c1ccccc1)C1(C#N)CC1)=C/C(=O)OC (stereo not shown) [I.1-202] | 20 | 20 | 10-20
CCCOC(=O)/C=C(\C#CC(O)(c1ccccc1)C1(C#N)CC1)CC (stereo not shown) [I.1-609] | 10 | 10-20 | 20
CCOC(=O)/C=C(\C#CC(O)(C(C)C)C1(C#N)CC1)CC (stereo not shown) [I.1-103] | 10-20 | 30 | 10-20
